In patent US12570657B2, “Mesylate salts of heterocyclic cytokinins, compositions containing these derivatives and use thereof” (UNIVERZITA PALACKEHO V OLOMOUCI, priority 2020, dated 2026):
Structures can show the parent of a compound that is named as a salt.

What was measured:
[1] = system: winter wheat leaf segments; experiment: Senescence bioassay: retention of chlorophyll in excised winter wheat leaf tips; assay type: in vivo, Triticum aestivum cv. Hereward; details: for activity (%) [10^−4 mol · l^−1 BAP = 100%]: chlorophyll retention at concentration with highest activity, 10^−4 M BAP = 100%; for concentration with highest activity: chlorophyll retention, excised wheat leaf tips, 96 h dark
Description: Seeds of winter wheat, Triticum aestivum cv. Hereward, were washed under running water for 24 hours and then sown on vermiculite soaked with Knop's solution. They were placed in a growth chamber at 25° C. with a 16/8 h light/dark period at 50 μmol·m^−2·s^−1. After 7 days, the first leaf was fully developed and the second leaf had started to grow. A tip section of the first leaf, approximately 35 mm long, was removed from 5 seedlings and trimmed slightly to a combined weight of 100 mg. The basal ends of the five leaf tips were placed in the wells of a microtiter polystyrene plate containing 150 μl of each tested compound solution. The entire plate was inserted into a plastic box lined with paper tissues soaked in distilled water to prevent leaf sections from drying out. After 96 h incubation in the dark at 25° C., the leaves were removed and chlorophyll extracted by heating at 80° C. for 10 min in 5 ml of 80% ethanol (v/v). The sample volume was then restored to 5 ml by the addition of 80% ethanol (v/v). The absorbance of the extract was recorded at 665 nm. In addition, chlorophyll extracts from fresh leaves and leaf tips incubated in deionised water were measured. […] Relative activity of the compound at this concentration was calculated (Tab. 3). The activity obtained for 10^−4 M 6-benzylaminopurine (BAP) was postulated as 100%. The values shown are means of five replicates and the whole experiment was repeated twice. The tested cytokinin bases were dissolved in dimethylsulfoxide (DMSO) and the solution brought up to 10^−3 M with distilled water. Cytokinin mesylate salts which are more water-soluble (BAP mesylate, meta-topolin mesylate and kinetin mesylate) could be directly dissolved to form a 10^−3 M solution in distilled water.

[2] = system: CEM (T-lymphoblastic leukemia); experiment: In vitro cytotoxicity, Calcein AM assay, CEM; assay type: cell-based; details: 3-day Calcein-AM assay
Excerpt: (§1) Because toxic compounds adversely affect cell metabolic processes, many standard cytotoxicity assays are based on measuring the rate of metabolism of various artificial substrates. The resulting product is then quantified, for example, by spectrometry. Assays can be easily modified for use in 96-well plates, A microtiter assay based on the quantification of Calcein AM metabolism was used to evaluate the cytotoxicity of cytokinins, for example meta-topolin, ortho-topolin, kinetin, BAP or its mesylate salts, but also a number of other cytokinin mesylate derivatives according to the invention. The test is widely used in drug screening programs and in chemosensitivity testing. In living cells, Calcein AM is enzymatically hydrolyzed and the accumulation of the resulting calcein is manifested by green fluorescence. […] These cells were maintained in standard DMEM or RPMI medium (Sigma, MO, USA) supplemented with heat-inactivated fetal bovine serum (10%) with 2 mM L-glutamine and penicillin-streptomycin (1%) under standard cell culture conditions (37° C., 5% CO2 in a humid environment) and subcultured two or three times a week using a standard trypsinization procedure. Approximately 10,000 cells in 80 μl of medium were seeded in a 96-well microtiter plate. After 12 hours of incubation, the compounds to be tested were added in 20 μl aliquots. Control cultures were treated with DMSO alone. […] After 72 hours of incubation, Calcein AM solution (Molecular Probes) was added to a final concentration of 1 μg/ml and the cells were incubated for another hour.
(§2) Cytoxicity of compounds was tested on panel of cell lines of different histogenetic and species origin.

[3] = system: HL-60 (promyelocytic, leukemia); experiment: In vitro cytotoxicity, Calcein AM assay, HL60; assay type: cell-based; details: 3-day Calcein-AM assay
Excerpt: as §1, §2

HOS (human osteosarcoma) = experiment: In vitro cytotoxicity, Calcein AM assay, HOS; assay type: cell-based; details: 3-day Calcein-AM assay
Excerpt: as §1, §2

[4] = system: MCF-7 (breast adenocarcinoma); experiment: In vitro cytotoxicity, Calcein AM assay, MCF7; assay type: cell-based; details: 3-day Calcein-AM assay
Excerpt: as §1, §2

[5] = system: K562 (chronic myeloid leukemia); experiment: In vitro cytotoxicity, Calcein AM assay, K-562; assay type: cell-based; details: 3-day Calcein-AM assay
Excerpt: as §1, §2

[6] = system: cytokinin-dependent tobacco callus; experiment: Tobacco callus biotest (stimulation of plant cell division); assay type: cell-based, Nicotiana tabacum L. cv. Wisconsin 38; details: callus growth at concentration with highest activity; 10^−5 M BAP = 100%
Description: Stimulation effect of the cytokinin mesylates was tested in tobacco callus biotest using cytokinin dependent tobacco callus. Cytokinin-dependent tobacco callus Nicotiana tabacum L. cv. […] Subcultivation was carried out every three weeks. Fourteen days before the bioassay, the callus tissue was transferred to the media without BAP. Biological activity was determined from the increase in fresh callus weight after four weeks of cultivation. Five replicates were prepared for each cytokinin concentration and the entire test was repeated twice. […] Relative activity of the compound at this concentration was calculated (Tab. 15). The activity obtained for 10^−5 M 6-benzylaminopurine (BAP) was postulated as 100%. The cytokinin bases to be tested were dissolved in dimethylsulfoxide (DMSO) and the solution brought up to 10^−3 M with distilled water. The mesylate salts were dissolved directly in distilled water.

CS(=O)(=O)O.Fc1ccc(CNc2ncnc3nc[nH]c23)c(F)c1 [2.4diFBAP mesylate]
activity (%) [10^−4 mol · l^−1 BAP = 100%] [1]: 141% | concentration with highest activity [1]: 10^−5 mol · l^−1

COc1ccccc1CNc1ncnc2nc[nH]c12 [2MeOBAP, 6-(2-methoxybenzylamino)purine]
IC50 ([2]; 72 h): 63.4 µM | IC50 ([3]; Homo sapiens, HL-60, 72 h): > 167 µM | IC50 (HOS (human osteosarcoma); Homo sapiens, 72 h): > 167 µM | IC50 ([4]; Homo sapiens, MCF7, 72 h): 153 µM | IC50 ([5]; Homo sapiens, K562, 72 h): 116 µM | activity (%) [10^−5 mol · l^−1 BAP = 100%] [6]: 79%

COc1cccc(CNc2ncnc3nc[nH]c23)c1O [2OH3MeOBAP, 6-(2-hydroxy-3-methoxybenzylamino)purine]
IC50 ([2]; 72 h): 41.6 µM | IC50 ([3]; Homo sapiens, HL-60, 72 h): 64.3 µM | IC50 ([4]; Homo sapiens, MCF7, 72 h): 26.6 µM | IC50 ([5]; Homo sapiens, K562, 72 h): > 167 µM

COc1ccc(CNc2ncnc3nc[nH]c23)cc1 [4MeOBAP mesylate, 6-(4-methoxybenzylamino)purine mesylate]
IC50 ([5]; mesylate): 118 µM

CS(=O)(=O)O.Fc1cccc(CNc2ncnc3nc[nH]c23)c1 [3FBAP mesylate, 6-(3-fluorobenzylamino)purine mesylate]
IC50 ([4]; mesylate): > 167 µM | activity (%) [10^−4 mol · l^−1 BAP = 100%] [1]: 210% | IC50 ([5]; mesylate): 136 µM | activity (%) [10^−5 mol · l^−1 BAP = 100%] [6]: 137%

Fc1cc(F)cc(CNc2ncnc3nc[nH]c23)c1 [6-(3.5-difluorobenzylamino)purine]
activity (%) [10^−4 mol · l^−1 BAP = 100%] [1]: 156% | concentration with highest activity [1]: 10^−5 mol · l^−1

CS(=O)(=O)O.Clc1cccc(CNc2ncnc3nc[nH]c23)c1 [3ClBAP mesylate, 6-(3-chlorobenzylamino)purine mesylate]
activity (%) [10^−4 mol · l^−1 BAP = 100%] [1]: 82% | activity (%) [10^−5 mol · l^−1 BAP = 100%] [6]: 101%

COc1cccc(CNc2ncnc3nc[nH]c23)c1O [2OH3MeOBAP mesylate, 6-(2-hydroxy-3-methoxybenzylamino)purine mesylate]
IC50 ([2]; mesylate): 51 µM | IC50 ([3]; mesylate): 67.8 µM | IC50 ([4]; mesylate): 32.1 µM

CS(=O)(=O)O.Fc1cc(F)cc(CNc2ncnc3nc[nH]c23)c1 [3.5diFBAP mesylate]
activity (%) [10^−4 mol · l^−1 BAP = 100%] [1]: 168% | concentration with highest activity [1]: 10^−5 mol · l^−1

C/C(=C/CNc1ncnc2nc[nH]c12)CO [Cis-zeatin (cZ), Cis-zeatin]
IC50 [2]: > 167 µM | IC50 [3]: > 167 µM | IC50 (HOS (human osteosarcoma)): > 167 µM | IC50 [4]: > 167 µM
